Assay: Light resistance of PMMA polymer film (residual amount after metal halide lamp irradiation)
Format: physicochemical
Conditions: 0.2 mass % compound in PMMA film, 50-μm thick; metal halide lamp (about 290 nm or less cut), 90 mW/cm^2, 63° C., humidity 50%, irradiation for 600 hours; absorbance at maximum absorption wavelength
Procedure: A binder solution was prepared by dissolving 22 mass % of a PMMA resin (“DIANAL BR-80”, trade name, produced by Mitsubishi Rayon Co., Ltd.) in methylene chloride. […] The coating solution was applied on glass as a base material by means of a 200 μm blade and dried at 100° C. for 10 minutes to form a 50-μm thick coating, whereby a film was produced. […] The residual amount was calculated according to the following formula: Residual amount (%)=100×(absorbance after irradiation)/(absorbance before irradiation)
Incidentally, the absorbance is a value measured at the maximum absorption wavelength of each compound.

| Compound | Residual Amount (%) |
| --- | --- |
| CCCCCCOc1ccc(-c2nc(-c3ccccc3)nc(-c3ccccc3)n2)c(O)c1 [Comparative Compound A] | 44 |
| CCCCCCCCOc1ccc(-c2nc(-c3ccc(C)cc3C)nc(-c3ccc(C)cc3C)n2)c(O)c1 [Comparative Compound B] | 14 |
